The source of these data is patent US8063047B2, “Pyridazine compounds and methods” (Centre National de la Recherche Scientifique (CNRS), priority 2004, dated 2011).

The test system of series [1] is Aβ-induced neuroinflammation and synaptic damage. In words: Aβ1-42 ICV infusion mouse model, hippocampal endpoints. The format is in vivo, C57B1/6 mice. The settings on record: mice infused ICV with Aβ1-42; […] per day i.p. for 14 days. The method, then:
FIG. 3A-F are graphs of MW01-2-151WH suppression of Aβ-induced neuroinflammation and synaptic damage. Hippocampal sections or extracts from vehicle-infused mice (control), Aβ-infused mice injected with solvent, and Aβ-infused mice injected with MW01-2-151 WH were evaluated for neuroinflammation by measurement of the levels of the pro-inflammatory cytokines IL-1β (A), TNFα(B), and S100B (C), and the number of GFAP-positive astrocytes, (D) and F4/80-positive microglia, (E), and evaluated for synaptic damage by analysis of the levels of the postsynaptic density protein 95 (PSD-95) (F). Data are from one of two independent experiments, and are the mean±SEM for 4-5 mice per experimental group.
In vivo Assays. Aβ-42 infusions and treatment of C57B1/6 mice with MW01-2-151WH were performed as previously described. Briefly, oligomeric […] was infused ICV for 28 days with a micro-osmotic pump. At post-operative day 21 and continuing for 14 days thereafter, mice were injected intraperitoneally once daily with either MW01-2-151WH (2.5 mg/kg per day) or solvent control (10% DMSO in saline). At post-operative day 60, mice were perfused and sacrificed, and hippocampal endpoints measured as previously described. […]

Series [2] concerns IL-1β production by BV-2 mouse microglial cells stimulated with LPS. The series is described as follows: LPS-induced IL-1β production in BV-2 microglial cells. The format is cell-based. The settings on record: BV-2 cells, LPS 100 ng/ml, 16 hrs, cell lysates, MSD assay. The method, then: (§1) BV-2 cells were treated with LPS (100 ng/ml) in the absence or presence of increasing concentrations of MW01-2-151WH or three structurally related analogs (MW01-3-202WH and MW01-3-173WH) for 16 hrs with levels of IL-1β and TNFα in cell lysates measured by the Meso-Scale Discovery electrochemiluminescent detection assay (See, e.g., Example 1, Materials and Methods). Data are the mean+/−SEM of triplicate determinations.
(§2) Biological investigations were done with compounds disclosed herein that were >95% homogenous as determined by HPLC/MS analysis. As part of a hierarchal, cell-based screening protocol, the compounds were screened for their ability to block IL-1β and TNFα production by BV-2 mouse microglial cells stimulated with LPS. The data for MWO1-2-1-151WH and the three structurally related analogs (MW01-3-202WH and MW01-3-173WH,) is shown (See, e.g., FIG. 2). Derivative groups that may be used to modify the compounds of the present invention can be found in U.S. Patent Application No. 20030176437 (herein incorporated by reference in its entirety for all purposes).
(§3) Cell Culture Assays. […] EL-1/3 and TNFa levels in cell lysates were determined by electro-chemiluminescent detection in a Meso-Scale Discovery (MSD) kit, as per the manufacturer's instructions.

Series [3] deals with TNFα production by BV-2 mouse microglial cells stimulated with LPS. The series is described as follows: LPS-induced TNFα production in BV-2 microglial cells. It is filed as cell-based. To be noted: BV-2 cells, LPS 100 ng/ml, 16 hrs, cell lysates, MSD assay. The method, then: as §1, §2, §3
Series [4] concerns liver, lungs, and kidney. In words: Graded dose, acute toxicity assay (histology of liver, lung, kidney). The format is in vivo. To be noted: mice, oral gavage once daily for 3 days, up to 50 mg/kg. The method, then:
Vehicle (panels A,C,E) or MW01-2-151 WH (panels B,D,F) was orally administered (gavage) to mice daily for three days at 50 mg/kg (20-fold greater than a therapeutic dose, described in Materials and Methods).
Graded dose, acute toxicity assays Vehicle (30% DMSO) or MW01-2-151WH (3.1, 12.5 or 50 mg/kg) in 0.5% carboxymethylcellulose was administered by oral gavage once daily for 3 days. On the 4th day, mice were anesthetized with pentobarbital, intubated and the lungs were inflated with an air containing syringe. The mice were perfused through the right ventricle and the lungs, liver and kidneys were then harvested and fixed in 4% paraformaldehyde for histology. Paraffin embedded hematoxylin & eosin stained sections of each organ were prepared by standard techniques.

Series [5] concerns Accumulation of the NO metabolite, nitrite, BV-2 microglial cells. In words: Nitrite (NO metabolite) accumulation in BV-2 microglial cells. To be noted: BV-2 cells, concentrations up to 50 μM. It is filed as cell-based, mouse. Here is the method:
FIG. 4 A-C are graphs of the cell-based activity of MW01-2-151WH in BV-2 microglial cells. MW01-2-151WH is a concentration-dependent and selective inhibitor of proinflammatory cytokine production by activated glia. […] (C) Accumulation of the NO metabolite, nitrite, was not inhibited at concentrations up to 50 μM.

Take “5,6-dihydro-3-(4-(pyrimidin-2-yl)piperazin-1-yl)benzo[h]cinnoline [MW01-2-151WH]”: the “number of F4/80 positive microglia” value in series [1] was “suppressed”. Also, the “inhibition of LPS-induced IL-1β production” value in series [2] is listed as “Concentration-dependent inhibition”; in series [2] (listed as MW01-2-151 WH), “suppressed”. Moreover, the “inhibition of LPS-induced TNFα production” value in series [3] is recorded as “Concentration-dependent inhibition”; in series [3] (listed as MW01-2-151 WH), “suppressed”. Also, the “tissue toxicity (histology of liver, lung, kidney), acute” value in series [4] was “No tissue toxicity was observed”; in series [4] (listed as MW01-2-151 WH), “no histological evidence of toxicity”. In series [5], the “Accumulation of the NO metabolite, nitrite” value is given as “not inhibited”.
In the case of “5,6-dihydro-3-(4-phenylpiperazin-1-yl)benzo[h]cinnoline [MW01-3-173WH]”, in series [2], the “inhibition of LPS-induced IL-1β production” value is “somewhat less suppressive activity”. For the same compound, the “inhibition of LPS-induced TNFα production” value in series [3] is listed as “somewhat less suppressive activity”.
On to `c1ccc(N2CCN(c3cc4c(nn3)-c3ccccc3CC4)CC2)nc1` [MW01-3-202WH, 5,6-dihydro-3-(4-(pyridm-2-yl)piperazin-1-yl)benzo[h]cinnoline], for which the “inhibition of LPS-induced IL-1β production” value in series [2] was “somewhat less suppressive activity”. In addition, the “inhibition of LPS-induced TNFα production” value in series [3] is recorded as “somewhat less suppressive activity”.
